Source: patent publication US20220119354A1, “DIAMINO-SUBSTITUTED PYRIDINES AND PYRIMIDINES AS HERBICIDES” (FMC Corporation, priority 2019, published 2022)

Tests used:
Format in all cases: in vivo
[1] = system: barnyardgrass (Echinochloa crus-galli); experiment: Test A preemergence, barnyardgrass; settings: 0 to 100 scale; for Barnyardgrass plant response rating: 0 is no effect, 100 is complete control
Summary of the method: (§1)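 Visual injury scored against untreated controls about 10 d after treatment, scale 0 = no effect to 100 = complete control. Compounds, formulated with surfactant in a non-phytotoxic solvent, went on as directed soil spray preemergence or onto 2–10 cm, one- to two-leaf plants postemergence; loam–sand soil, greenhouse.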

[2] = system: kochia (Kochia scoparia); experiment: Test A preemergence, kochia; settings: 0 to 100 scale; for Kochia plant response rating: 0 is no effect, 100 is complete control
Summary of the method: as §1

[3] = system: ragweed (common ragweed, Ambrosia elatior); experiment: Test A preemergence, ragweed; settings: 0 to 100 scale; for Ragweed plant response rating: 0 is no effect, 100 is complete control
Summary of the method: as §1

[4] = system: ryegrass, Italian (Lolium multiflorum); experiment: Test A preemergence, Italian ryegrass; settings: 0 to 100 scale; for Ryegrass, Italian plant response rating: 0 is no effect, 100 is complete control
Summary of the method: as §1

[5] = system: foxtail, giant (Setaria faberii); experiment: Test A preemergence, giant foxtail; settings: 0 to 100 scale; for Foxtail, Giant plant response rating: 0 is no effect, 100 is complete control
Summary of the method: as §1

[6] = system: pigweed (Amaranthus retroflexus); experiment: Test A preemergence, pigweed; settings: 0 to 100 scale; for Pigweed plant response rating: 0 is no effect, 100 is complete control
Summary of the method: as §1

[7] = system: barnyardgrass (Echinochloa crus-galli); experiment: Test A postemergence, barnyardgrass; settings: 0 to 100 scale
Summary of the method: as §1

[8] = system: kochia (Kochia scoparia); experiment: Test A postemergence, kochia; settings: 0 to 100 scale
Summary of the method: as §1

[9] = system: ragweed (common ragweed, Ambrosia elatior); experiment: Test A postemergence, ragweed; settings: 0 to 100 scale
Summary of the method: as §1

[10] = system: ryegrass, Italian (Lolium multiflorum); experiment: Test A postemergence, Italian ryegrass; settings: 0 to 100 scale
Summary of the method: as §1

[11] = system: foxtail, giant (Setaria faberii); experiment: Test A postemergence, giant foxtail; settings: 0 to 100 scale
Summary of the method: as §1

[12] = system: pigweed (Amaranthus retroflexus); experiment: Test A postemergence, pigweed; settings: 0 to 100 scale
Summary of the method: as §1

[13] = system: wheat (Triticum aestivum); experiment: Test A postemergence, wheat; settings: 0 to 100 scale
Summary of the method: as §1

[14] = system: corn (Zea mays); experiment: Test A postemergence, corn; settings: 0 to 100 scale
Summary of the method: as §1

[15] = system: blackgrass (Alopecurus myosuroides); experiment: Test A postemergence, blackgrass; settings: 0 to 100 scale
Summary of the method: as §1

[16] = system: galium (catchweed bedstraw, Galium aparine); experiment: Test A postemergence, galium; settings: 0 to 100 scale
Summary of the method: as §1

[17] = system: rice (Oryza sativa); experiment: Test B flooded paddy test, rice; settings: Flood, 250 g ai/ha, applied to paddy water, 2-leaf stage, visual evaluation after 13 to 15 d
Summary of the method: (§2)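 Rating: 0 = no effect, 100 = complete control, visual, relative to untreated plants. Conditions: 2-leaf stage, 3 cm flood kept constant, compound put directly into water, 13–15 d greenhouse.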

[18] = system: sedge, umbrella (small-flower umbrella sedge, Cyperus difformis); experiment: Test B flooded paddy test, umbrella sedge; settings: Flood, 250 g ai/ha, applied to paddy water, 2-leaf stage, visual evaluation after 13 to 15 d
Summary of the method: as §2

[19] = system: ducksalad (Heteranthera limosa); experiment: Test B flooded paddy test, ducksalad; settings: Flood, 250 g ai/ha, applied to paddy water, 2-leaf stage, visual evaluation after 13 to 15 d
Summary of the method: as §2

[20] = system: barnyardgrass (Echinochloa crus-galli); experiment: Test B flooded paddy test, barnyardgrass; settings: Flood, 250 g ai/ha, applied to paddy water, 2-leaf stage, visual evaluation after 13 to 15 d
Summary of the method: as §2

[21] = 31 g ai/ha, 0 no effect, 100 complete control
[22] = 125 g ai/ha, 0 no effect, 100 complete control

C[C@@H](Nc1ncc(C(F)(F)F)c(N)n1)c1cc2c(F)ccc(F)c2s1 [Compound 114]
30: Kochia plant response rating ([2]; 31 g ai/ha) | Ryegrass, Italian plant response rating ([4]; 31 g ai/ha) | Plant response rating, Barnyardgrass [7, 22] | Plant response rating, Wheat [13, 22] | Plant response rating, Corn [14, 22] | Plant response rating, Blackgrass [15, 22]
40: Barnyardgrass plant response rating ([1]; 125 g ai/ha) | Ragweed plant response rating ([3]; 31 g ai/ha) | Plant response rating, Ragweed [9, 21] | Plant response rating, Ryegrass, Italian [10, 22]
80: Plant response rating, Kochia [8, 22] | Plant response rating, Ragweed [9, 22] | Plant response rating, Sedge, Umbrella (0 to 100 scale, 0 is no effect, 100 is complete control) [18]
20: Plant response rating, Rice (0 to 100 scale, 0 is no effect, 100 is complete control) [17]
60: Kochia plant response rating ([2]; 125 g ai/ha) | Ragweed plant response rating ([3]; 125 g ai/ha) | Plant response rating, Galium [16, 21]
100: Pigweed plant response rating ([6]; 125 g ai/ha) | Plant response rating, Foxtail, Giant [11, 22] | Plant response rating, Pigweed [12, 21] | Plant response rating, Pigweed [12, 22]
10: Foxtail, Giant plant response rating ([5]; 31 g ai/ha) | Plant response rating, Barnyardgrass [7, 21] | Plant response rating, Foxtail, Giant [11, 21] | Plant response rating, Corn [14, 21]
65: Plant response rating, Ducksalad (0 to 100 scale, 0 is no effect, 100 is complete control) [19] | Plant response rating, Barnyardgrass (0 to 100 scale, 0 is no effect, 100 is complete control) [20]
90: Plant response rating, Galium [16, 22]
0: Barnyardgrass plant response rating ([1]; 31 g ai/ha) | Plant response rating, Ryegrass, Italian [10, 21] | Plant response rating, Wheat [13, 21] | Plant response rating, Blackgrass [15, 21]
70: Foxtail, Giant plant response rating ([5]; 125 g ai/ha)
50: Ryegrass, Italian plant response rating ([4]; 125 g ai/ha) | Pigweed plant response rating ([6]; 31 g ai/ha) | Plant response rating, Kochia [8, 21]

CC(Nc1ncc(C(F)(F)F)c(N)n1)C1Cc2ccccc2C1 (racemic) [Compound 6]
30: Plant response rating, Ragweed ([3]; 125 g ai/ha) | Plant response rating, Ryegrass, Italian ([4]; 125 g ai/ha)
10: Plant response rating, Barnyardgrass ([7]; 125 g ai/ha) | Plant response rating, Barnyardgrass ([7]; 500 g ai/ha) | Plant response rating, Blackgrass ([15]; 500 g ai/ha)
0: Plant response rating, Barnyardgrass ([1]; 125 g ai/ha) | Plant response rating, Ryegrass, Italian ([10]; 125 g ai/ha) | Plant response rating, Foxtail, Giant ([11]; 125 g ai/ha) | Plant response rating, Wheat ([13]; 125 g ai/ha) | Plant response rating, Wheat ([13]; 500 g ai/ha) | Plant response rating, Corn ([14]; 125 g ai/ha) | Plant response rating, Blackgrass ([15]; 125 g ai/ha) | Plant response rating, Rice (0 to 100 scale, 0 is no effect, 100 is complete control) [17] | Plant response rating, Sedge, Umbrella (0 to 100 scale, 0 is no effect, 100 is complete control) [18] | Plant response rating, Ducksalad (0 to 100 scale, 0 is no effect, 100 is complete control) [19] | Plant response rating, Barnyardgrass (0 to 100 scale, 0 is no effect, 100 is complete control) [20]
80: Plant response rating, Kochia ([2]; 125 g ai/ha)
20: Plant response rating, Ragweed ([9]; 125 g ai/ha) | Plant response rating, Ryegrass, Italian ([10]; 500 g ai/ha) | Plant response rating, Foxtail, Giant ([11]; 500 g ai/ha) | Plant response rating, Corn ([14]; 500 g ai/ha)
60: Plant response rating, Barnyardgrass ([1]; 500 g ai/ha)
40: Plant response rating, Ragweed ([9]; 500 g ai/ha) | Plant response rating, Galium ([16]; 125 g ai/ha)
70: Plant response rating, Ryegrass, Italian ([4]; 500 g ai/ha) | Plant response rating, Kochia ([8]; 125 g ai/ha) | Plant response rating, Galium ([16]; 500 g ai/ha)
90: Plant response rating, Foxtail, Giant ([5]; 125 g ai/ha) | Plant response rating, Kochia ([8]; 500 g ai/ha) | Plant response rating, Pigweed ([12]; 125 g ai/ha)
100: Plant response rating, Kochia ([2]; 500 g ai/ha) | Plant response rating, Ragweed ([3]; 500 g ai/ha) | Plant response rating, Foxtail, Giant ([5]; 500 g ai/ha) | Plant response rating, Pigweed ([6]; 125 g ai/ha) | Plant response rating, Pigweed ([6]; 500 g ai/ha) | Plant response rating, Pigweed ([12]; 500 g ai/ha)
